Measured values from patent US10954221B2, “GLP-1R agonists and uses thereof” (QILU REGOR THERAPEUTICS INC., priority 2019, dated 2021).

Experiments:
GLP1R [1] = target: T1, GLP1R (Homo sapiens, UniProt P43220); experiment: β-Arrestin-mediated GLP1R internalization assay (PathHunter U2OS cells); assay type: cell-based; parameters: host or cells: PathHunter engineered U2OS cells; settings: averaged Bmax where applicable, Percentage of Control GLP-1 (7-37), top 10 μM, 180 min
Summary of the method: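 PathHunter U2OS cells co-express untagged GLP1R, EA-tagged β-arrestin and an endosome-localized PK tag, so internalization gives β-galactosidase complementation. Agonist (top final concentration 10 μM) applied for 180 min at 37 °C, then chemiluminescence read after 60 min detection. EC50 from 4-parameter logistic fits.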
Target sequence in this assay (P43220 24-463): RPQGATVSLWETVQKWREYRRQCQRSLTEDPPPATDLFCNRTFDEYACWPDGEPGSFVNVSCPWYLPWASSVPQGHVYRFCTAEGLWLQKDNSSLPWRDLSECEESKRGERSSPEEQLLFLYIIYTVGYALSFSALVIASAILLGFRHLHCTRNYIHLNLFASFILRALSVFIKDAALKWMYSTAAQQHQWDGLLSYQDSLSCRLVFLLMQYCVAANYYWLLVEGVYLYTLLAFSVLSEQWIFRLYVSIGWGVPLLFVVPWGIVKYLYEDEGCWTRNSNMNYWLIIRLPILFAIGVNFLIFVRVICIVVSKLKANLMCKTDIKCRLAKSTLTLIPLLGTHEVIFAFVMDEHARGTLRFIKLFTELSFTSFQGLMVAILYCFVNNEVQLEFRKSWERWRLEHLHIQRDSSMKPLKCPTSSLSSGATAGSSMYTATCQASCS
Target sequence in this assay (P32121 whole entry partner): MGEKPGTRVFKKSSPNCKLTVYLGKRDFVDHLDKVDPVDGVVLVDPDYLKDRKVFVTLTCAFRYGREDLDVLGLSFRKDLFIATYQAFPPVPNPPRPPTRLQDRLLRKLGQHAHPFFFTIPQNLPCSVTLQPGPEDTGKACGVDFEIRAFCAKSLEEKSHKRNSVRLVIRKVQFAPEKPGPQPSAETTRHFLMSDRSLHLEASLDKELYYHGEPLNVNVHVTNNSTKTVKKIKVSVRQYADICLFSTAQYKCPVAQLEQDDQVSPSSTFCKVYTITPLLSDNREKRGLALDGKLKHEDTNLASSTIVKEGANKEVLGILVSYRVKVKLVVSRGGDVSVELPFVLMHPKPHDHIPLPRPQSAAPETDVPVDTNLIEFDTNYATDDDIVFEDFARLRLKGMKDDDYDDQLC

GLP1R [2] = target: T1, GLP1R; experiment: GLP1R cAMP assay (HTRF), HEK293/GLP-1R/CRE/Luc, Clone 4
Target sequence in this assay (P43220 24-463): as the sequence (P43220 24-463) above

GLP1R [3] = target: T1, GLP1R; experiment: cAMP assay in CHO cells stably expressing hGLP-1R; assay type: cell-based; parameters: expressed in transfected cells; host or cells: CHO cells stably transfected; settings: CHO cells stably expressing hGLP-1R (Table 2), read-out: CHO cAMP stable EC50
Protocol: GLP-1R-mediated agonist activity was determined with a cell-based functional assay utilizing an HTRF (Homogeneous Time-Resolved Fluorescence) cAMP detection kit (cAMP Dynamic 2 Assay Kit; CisBio cat #62AM4PEC) that measures cAMP levels in the cell. The method is a competitive immunoassay between native cAMP produced by the cells and exogenous cAMP labeled with the dye d2. The tracer binding is visualized by a mAb anti-cAMP labeled with Cryptate. The specific signal (i.e., energy transfer) is inversely proportional to the concentration of cAMP in either standard or experimental sample.
Following the 30 minute incubation, 5 μL of labeled d2 cAMP and 5 μL of anti-cAMP antibody (both diluted 1:20 in cell lysis buffer; as described in the manufacturer's assay protocol) were added to each well of the assay plate. […] Raw data were converted to nM cAMP by interpolation from a cAMP standard curve (as described in the manufacturer's assay protocol) and the percent effect was determined relative to a saturating concentration of the full agonist GLP-17-37 (10 nM) included on each plate. EC50 determinations were made from agonist dose-response curves analyzed with a curve fitting program using a 4-parameter logistic dose response equation. […]
Target sequence in this assay (P43220 24-463): as above

GLP1R [4] = target: T1, GLP1R; parameters: Emax: dose or concentration left out as unconfirmed; settings: CHO-K1, […], read-out: β-arrestin recruitment Bmax (%)
Target sequence in this assay (P43220 24-463): as above
Target sequence in this assay (P32121 whole entry partner): as the sequence (P32121 whole entry partner) above
Protocol: Frozen cells were quickly thawed and 10 mL of cell plating medium (provided by the kit) was added to thawed cells. Cells were stored in a 37° C. incubator under 5% CO2 and kept for approximately 48 hours until ready to run the assay.
Reference and test compounds were dissolved in 100% DMSO. […] 5 μL of this solution was added to 20 μL cell medium in assay plate for a final top concentration of 10 μM. Plates were then incubated at 37° C. under 5% CO2 for 90 min.
Following 90 min incubation, detection reagents were made up by combining 1 part Galacton Star Substrate with 5 parts Emerald II™ Solution, and 19 parts of PathHunter Cell Assay Buffer, respectively. 12.5 μl detection reagent was added to each well. The plates were then incubated at room temperature in dark for 60 min. Plates were then read on Envision for 0.1 sec/well.
Cells were plated at a density of 1000 or 2000 cells/20 μL/well. Frozen cells were quickly thawed and added to 10 mL of cell plating medium. Cells were stored in a 37 degree incubator under 5% CO2 and left for approximately 48 hours until ready to run the assay
Prepare 10× concentration of an agonist in serum free DMEM, and add all solutions into the compound plate. 2.5 μL of this solution was added to 20 μL cell medium in assay plate for a final top concentration of 10 μM. Plates were incubated at 37° C. under 5% CO2 for 30 min. An additional 2.5 μL of Buffer was added to the entire plate for agonist mode and incubated at 37° C. for another 90 min.
Following 90 min incubation, detection reagents were made up as described. 12.5 μL was added to all wells. The plates were then incubated at room temperature in dark for 60 min. Plates were then read on Envision for 0.1 sec/well.
Data analysis: GraphPad Prism 6 was used for establishment of progression curve. EC50s or IC50s were determined by 4-parameter logistic dose response equation.

Row | Structure (SMILES) | β-arrestin internalization Bmax (POC) (GLP1R [1]) | EC50 (GLP1R [2]) | EC50 (GLP1R [3]) | Emax (GLP1R [4])
1 | O=C(O)c1ccc2nc(Cc3cc(F)c(-c4cccc(OCc5ncc(Cl)cc5F)n4)cc3F)n(C[C@@H]3CCO3)c2n1 [Compound 276, (S)-2-(4-(6-((5-chloro-3-fluoropyridin-2-yl)methoxy)pyridin-2-yl)-2,5-difluorobenzyl)-3-(oxetan-2-ylmethyl)-3H-imidazo[4,5-b]pyridine-5-carboxylic acid] | 26.7 POC | < 15 nM | < 15 nM | 35.6 ± 3.9%
2 | O=C(O)c1ccc2nc(Cc3cc(F)c(-c4cccc(OCc5ccc(-n6ccnc6)cc5)n4)cc3F)n(C[C@@H]3CCO3)c2n1 [Compound 303, (S)-2-(4-(6-(4-(1H-imidazol-1-yl)benzyloxy)pyridin-2-yl)-2,5-difluorobenzyl)-3-(oxetan-2-ylmethyl)-3H-imidazo[4,5-b]pyridine-5-carboxylic acid] | 28.4 POC | < 15 nM | < 15 nM | 39.2 ± 4.75%
3 | N#Cc1ccc(COc2nc(-c3ccc(Cc4nc5ccc(C(=O)O)cc5n4C[C@@H]4CCO4)c(F)c3)ncc2F)c(F)c1 [Compound 266, (S)-2-(4-(4-((4-cyano-2-fluorobenzyl)oxy)-5-fluoropyrimidin-2-yl)-2-fluorobenzyl)-1-(oxetan-2-ylmethyl)-1H-benzo[d]imidazole-6-carboxylic acid] | 19.9 ± 0.122 POC | < 15 nM | < 15 nM | 26.7 ± 4.76%
4 | N#Cc1cnc(COc2cccc(-c3cc(F)c(Cc4nc5ccc(C(=O)O)nc5n4C[C@@H]4CCO4)cc3F)n2)c(F)c1 [Compound 278, (S)-2-(4-(6-((5-cyano-3-fluoropyridin-2-yl)methoxy)pyridin-2-yl)-2,5-difluorobenzyl)-3-(oxetan-2-ylmethyl)-3H-imidazo[4,5-b]pyridine-5-carboxylic acid] | 36.5 POC | < 15 nM | < 15 nM | 36.2 ± 5.56%
5 | N#Cc1ccc(COc2cccc(-c3cc(F)c(Cc4nc5ccc(C(=O)O)nc5n4C[C@@H]4CCO4)cc3F)n2)c(F)c1 [Compound 292, (S)-2-(4-(6-((4-cyano-2-fluorobenzyl)oxy)pyridin-2-yl)-2,5-difluorobenzyl)-3-(oxetan-2-ylmethyl)-3H-imidazo[4,5-b]pyridine-5-carboxylic acid] | 29.6 POC | < 15 nM | < 15 nM | 42.2 ± 2.68%

Other lines, results leading:

Row | β-arrestin internalization Bmax (POC) (GLP1R [1]) | EC50 (GLP1R [2]) | EC50 (GLP1R [3]) | Emax (GLP1R [4]) | Structure (SMILES)
6 | 45.2 POC | < 15 nM | < 15 nM | 33.4 ± 2.13% | N#Cc1ccc(COc2nc(-c3ccc(Cc4nc5ccc(C(=O)O)c(F)c5n4C[C@@H]4CCO4)c(F)c3)ncc2F)c(F)c1 [Compound 312, (S)-2-(4-(4-((4-cyano-2-fluorobenzyl)oxy)-5-fluoropyrimidin-2-yl)-2-fluorobenzyl)-7-fluoro-1-(oxetan-2-ylmethyl)-1H-benzo[d]imidazole-6-carboxylic acid]
7 | 26.7 ± 4.53 POC | < 15 nM | < 15 nM | 38.8 ± 7.09% | O=C(O)c1ccc2nc(Cc3ccc(-c4nccc(OCc5ccc(Cl)cc5F)n4)cc3F)n(C[C@@H]3CCO3)c2c1F [Compound 311, (S)-2-(4-(4-((4-chloro-2-fluorobenzyl)oxy)pyrimidin-2-yl)-2-fluorobenzyl)-7-fluoro-1-(oxetan-2-ylmethyl)-1H-benzo[d]imidazole-6-carboxylic acid]
